Experimental data: patent publication US4855321A, “Antihypercholesterolemic compounds” (Merck & Co., Inc., priority 1988, dated 1989)

Test system: HMG-CoA reductase
Experiment: HMG-CoA Reductase Inhibition Assay (in vitro, [14C]HMG-CoA, relative to compactin)
Format: biochemical, rat (male Holtzman Sprague-Dawley)
Details: compactin assigned 100; IC50 of test compound compared with that of compactin determined simultaneously; pH 7.2, 40 min, 37° C.; lactone converted in situ to sodium salt of dihydroxy acid
Protocol: The intrinsic HMG-CoA reductase inhibition activity of the claimed compounds is measured in the in vitro protocol published in J. Med. Chem., 28, p. 347-358 (1985) and described below:
Male Holtzman Sprague-Dawley rats (225-250 g) were kept on reversed lighting and fed Purina rat chow containing 3% cholestyramine for 7 days preceding their sacrifice by CO2 asphyxiation. Livers were removed 6 hours into the dark cycle and used immediately to prepare microsomes. […]
Test compounds or compactin (after first being converted to the sodium salt of their dihydroxy acid form in situ by addition of 1N NaOH (1 equivalent) were added to the assay system in 10-μl volumes at multiconcentration levels. After a 40-minute incubation at 37° C. to ensure the complete lactionization of mevalonic acid to mevalonolactone, 0.2 ml of the mixture was added to an 0.5×5.0 cm column containing 100-200 mesh BioRex 5, chloride form (Bio-Rad), wetted with distilled water, as described by Alberts et al., [J. Proc. Natl. Acad. Sci. U.S.A., 1980, 77, 3957]. The unreacted [^14 C]HMG-CoA was absorbed on the resin and the [^14 C] mevalonolactone was eluted with distilled water (2×1 ml) directly into 7-ml scintillation vials. Five milliliters of Aquasol-2 (New England Nuclear) was added to each vial, and radioactivity was measured in a Packard Tri Carb Prias scintillation counter. […]

- relative potency (intrinsic HMG-CoA reductase inhibitory activity) when compared to compactin at 100: 26.5
SMILES: Cc1cc(C)c(/C=C/[C@H]2C[C@H](O)CC(=O)O2)c(-c2ccc(F)c(CO)c2)c1 (relative stereo) [trans-(E)-6-[2-[4'-fluoro-3'-(hydroxymethyl)-3,5-dimethyl[1,1'-biphenyl]-2-yl]ethenyl]-3,4,5,6-tetrahydro-4-hydroxy-2H-pyran-2-one]
